# Source: patent US7592326B2, “Method for stimulating the immune, inflammatory or neuroprotective response” (priority 2004, dated 2009)
# Assays:
# [1] = system: immature DCs (iDC) and mature DCs (mDC); assay: Cytokine production by dendritic cells (sandwich ELISA of supernatants); type: cell-based, human; settings: 24 h
# Description: Analysis of supernatant cytokine content was performed both on treated (c-di-GMP) or untreated saline control (NaCl) immature DCs (iDC) and mature DCs (mDC). Culture supernatants were collected after 24 h treatment and IL-1β, IL-6, IL-10, IL-12, and TNF- α contents were measured using a sandwich ELISA according to the manufacturer's instructions.
# NF-κB = assay: Western blot signaling in human DCs: NF-κB (I-κBα degradation); type: cell-based; settings: up to 30 min
# Description: Human PBMC were isolated by Ficoll density gradient centrifugation from leukopacks supplied by the Department of Transfusion Medicine (Clinical Center, National Institute of Health, Bethesda, Md.). Monocytes were purified (>95%) from human PBMC with MACS CD14 monocyte isolation kit (Miltenyi Biotech Inc., Auburn, Calif.) according to the manufacturer's instruction. DCs were generated as described previously (Yang et al., 2001). In brief, DCs were generated by incubating purified monocytes at 2×10^5/ml in RPMI 1640 containing 10% FBS, 2 mM glutamine, 25 mM HEPES, 100 U/ml penicillin, 100 ug/ml streptomycin, 50 ng/ml recombinant human GM-CSF (PeproTech, Rocky Hill, N.J.), and 50 ng/ml recombinant human IL-4 (PeproTech) at 37° C. in a CO2 (5%) incubator for 7 days. On day 3 and 5 of the incubation, half of the culture medium was replaced with pre-warmed (37° C.) fresh GM-CSF- and IL-4-containing medium. On day 7, DCs were collected, washed three times with PBS, and serum-starved for 8 hours by incubating in serum-free RPMI-1640 containing GM-CSF and IL-4 (2×10^5/ml) at 37° C. in a CO2 (5%) incubator. Subsequently, DCs (2×10^6/sample) were incubated at 37° C. in the absence or presence of c-di-GMP or GMP (Sigma, St. Louis, Mo.) at concentrations specified for 5 or 30 minutes. […]
# p38 MAPK = assay: Western blot signaling in human macrophages: p38 MAPK; type: cell-based; settings: human M-CSF-induced monocyte-derived macrophages
# Description: Preparation of macrophages was performed as previously described (Akagawa et al., 1996). Briefly, fully differentiated macrophages from human PBMC were isolated from leukapheresis preparations obtained by the Blood Bank, Clinical Center, National Institutes of Health, Bethesda, Md. The leukocyte-rich preparation was overlaid on Accu-prep in 50 ml tubes and the tubes were centrifuged at 800 × g for 20 min at room temperature. PBMC fractions were collected, washed once with PBS at room temperature and twice with complete medium at 4° C. and resuspended in the same medium. Monocytes were further purified by using iso-osmotic Percoll gradient (Amersham Biosciences). At this stage, the purity of monocytes was higher than 90%. One and half million cells were placed on a 12-well plate in 1.5 ml RPMI1640 containing 50 ng/ml human M-CSF. On day 4, 1 ml of the medium was replaced with 1 ml of fresh medium containing 50 ng human M-CSF. On day 7, non-adherent cells were washed out and adherent cells were used as macrophages.
# Western blot analysis of macrophages was performed as previously described (Matsuyama et al., 2003). Briefly, prepared macrophages were starved in RPMI 1640 without FCS for 10 h. […] Proteins were analyzed on 12% polyacrylamide gels by SDS-PAGE and transferred electrophoretically to nitrocellulose membranes at 150 mA for 1 h in a semi-dry system. […]
# S. aureus strain NCH57 = assay: Mouse S. aureus pneumonia (proposed); type: in vivo; settings: 200 nmol 24- and 48 hours prior; 1×10^9 CFU NCH57
# [2] = system: Influenza virus B/Yamanashi/166/98; assay: Influenza vaccination model in mice, c-diGMP as adjuvant (proposed); type: in vivo; settings: two vaccinations 3 weeks apart
smiles,measurement,setting,value
"Nc1nc(=O)c2ncn([C@@H]3OC4COP(=O)(O)O[C@H]5[C@@H](O)[C@H](n6cnc7c(=O)nc(N)[nH]c76)O[C@@H]5COP(=O)(O)OC4C3O)c2[nH]1 (stereo partly shown) [c-di-GMP, Bis(3′→5′)-cyclic diguanylic acid]",IL-10 expression,[1]; DCs,no major effect
same,production of TNF-α,"[1]; iDCs, 5 μM, FIG. 3A",dramatic increase
same,IL-12 secretion,[1]; immature DCs,undetectable
same,IL-12 production,"[1]; mDCs (LPS-treated), 50 μM",dramatic increase
same,IL-6 production,"[1]; mDCs (LPS-treated), 100 μM, FIG. 3B",increase
same,IL-1β production,"[1]; mDCs (LPS-treated), FIG. 3B",major increase
same,activation of NF-κB (I-κBα degradation),NF-κB,did not activate
same,phosphorylation of p38 MAPK,p38 MAPK,no phosphorylation
same,survival,S. aureus strain NCH57,greater survival
same,survival after challenge,[2],greater survival
